The source of these data is patent publication US5814666A, “Encapsulated and non-encapsulated nitric oxide generators used as antimicrobial agents” (The United States as represented by the Department of …, priority 1995, dated 1998).

In brackets after ≈: the same amount, converted by molar mass. Where a name gives a salt, the structure may show the parent alone. Read-outs that look alike come from different tables or passages of the source.

One data set concerns DNA synthesis. Particulars: in words; cited from earlier work.
A short description of data set [1]: Half-life of nitric oxide generators at pH 7.4 and 37° C. (Table 1).
The test system of data set [2] is Francisella tularensis. The data set is classed as in vivo, mice.
The subject of data set [3] is P. falciparum clone CDC/Indochina III (W2). Nature of the data set: Anti-malaria in vitro screen, P. falciparum clone W2. Particulars: Plasmodium falciparum.
The test system of data set [4] is P. falciparum clone CDC/Sierra Leone I (D6). Nature of the data set: Anti-malaria in vitro screen, P. falciparum clone D6. Conditions: Plasmodium falciparum.
Another data set has as its system Candida albicans. Kind of data set: microbe, parasite or virus in culture. The data set is classed as cell-based. Particulars: read-out: IC50 (growth inhibition).
Data set [5] concerns Leishmania major. Kind of data set: Blocking Leishmania major growth in vitro compared with glucantime. The data set is classed as cell-based. Particulars: equivalent molar concentrations of NONOates and glucantime.
The next data set relates to macrophages. Nature of the data set: NO2^- / NO release by macrophages after exposure to liposome-encapsulated or non-encapsulated NONOates (Table 8). Particulars: non-encapsulated; 50 μM, 1 hr incubation, culture medium after 24 hrs.
Data set [6] relates to Francisella tularensis. Kind of data set: microbe, parasite or virus in culture. Format: cell-based. Particulars: read-out: IC50 (growth inhibition).
The subject of data set [7] is Leishmania major. Kind of data set: microbe, parasite or virus in culture. Particulars: read-out: IC50 (growth inhibition). The data set is classed as cell-based.
Data set [8] in a line: Stability of nitric oxide generators in PBS at room temperature, absorbance (Table 5). Particulars: for Initial Abs. / 24-hour Abs.: PBS, at peak wavelength; for Initial Abs.: immediately; for 24-hour Abs.: room temperature; for degraded at 24 h: pbs.
The nature of a further data set: physchem. Conditions: pH 7.4.
The test system of another data set is Plasmodium falciparum. Nature of the data set: Anti-malaria in vitro screen, overall result. Conditions: in words.
For data set [9] the following is noted: pH 7.4.
The conditions of data set [10]: in words; cited from earlier work.
A further data set relates to tumor cells. Conditions: tumor cells in vitro; in words; cited from earlier work.
Data set [11] relates to Mycobacterium tuberculosis. Conditions: direct delivery; in words; cited from earlier work.
The mark [12] stands for this setting: pH 7.4, 37° C., result in words.
Setting [13] is: experiment #1, IP 200 μM two days after inoculation.

With `CC(=O)N[C@H](C(=O)O)C(C)(C)SN=O` (racemic) [S-nitroso-N-acetylpenicillamine], the “inhibition of DNA synthesis” value in the data set on DNA synthesis is on record as “effective at inhibiting DNA synthesis”.
Turning to `C=CCON=[N+]([O-])N(CC)CC` [A-DEA/NO], the Half-life entry in data set [1] (setting [12]) is given as “stable”.
Still for that read-out and setting: the result for `C=CCON=[N+]([O-])NC(C)C` [A-IPA/NO] reads “stable”; that for `CCN(CC)[N+]([O-])=NOCCBr` [BE-DEA/NO], “stable”; that for `CCOC(=O)CON=[N+]([O-])NC(C)C` [CEM-IPA/NO], “stable”.
In the case of `CCN(CC)[N+]([O-])=NO` [DEA/NO, diethylamine-bis(nitric oxide) adduct sodium salt], in the data set on Francisella tularensis [2] (setting [13]), the “#Dead/Total” value was 5/5 and the “% Protected” value amounted to 0%. In data set [1] (pH 7.4), this compound displayed a Half-life of 2 min.
As a reminder, the IC50 is the midpoint of a concentration-inhibition curve. By IC90 is commonly meant the point of the concentration-response curve where the effect stands at 90%. In the case of `NCCN(CCN)[N+]([O-])=NO` [DETA/NO], the IC50 is 0.037 µg/mL (≈ 0.227 µM) in data set [3]; 4.83 µg/mL (≈ 29.6 µM) in data set [4]; below 100 µM with Candida albicans; below 100 µM in the data set with Francisella tularensis [6]; below 10000 µM in the data set on Leishmania major [7]. Besides, the concentration for an effect of 90% (IC90) stood at 0.094 µg/mL (≈ 0.576 µM) in [3] and 10.1 µg/mL (≈ 62 µM) in [4]. In the data set on Leishmania major [5], the “times more effective than glucantime at blocking Leishmania major growth” value (“times more effective than glucantime” below) is on record as 7.2 times. The “NO2 --(nmol/ml)” value with macrophages turned out to be 0 nmol/mL.
Regarding `CCON=[N+]([O-])N(CC)CC` [E-DEA/NO], the Half-life entry in data set [1] (setting [12]) is reported as “stable”.
`CCN(CC)[N+]([O-])=NOCCO` [HE-DEA/NO]: in [1] (setting [12]), the Half-life entry was “stable”.
As to `CCN(CC)[N+]([O-])=NOCC(C)O` (stereo not drawn) [HP-DEA/NO], the Half-life result in data set [1] (setting [12]) is recorded as “stable”.
As to `CCN(CC)[N+]([O-])=NOC` [M-DEA/NO], in data set [8], the “Initial Abs.” value came to 3.454, the “24-hour Abs.” value came out at 3.020 and the degraded at 24 h was found to be 14%. For the same compound, the Half-life result in data set [1] (setting [12]) is “stable”.
Consider `CON=[N+]([O-])NC(C)C` [M-IPA/NO], for which, in data set [1] (setting [12]), the Half-life result is on record as “stable”.
For `CCN(CC)[N+]([O-])=NOCOC` [MOM-DEA/NO], the “#Dead/Total” value with Francisella tularensis [2] (setting [13]) was 1/5; in the data set on Francisella tularensis [2] (experiment #2, IP 200 μM two days after inoculation), 1/5. Further, the “% Protected” value in the data set on Francisella tularensis [2] (setting [13]) stood at 80%; in the data set with Francisella tularensis [2] (experiment #2, IP 200 μM, control 40% protected), 80%. Besides, the anti-microbial effects result in the data set with Francisella tularensis [2] (two subsequent experiments, in words) is “not found to be significant in two subsequent experiments”. The compound further had a Half-life in data set [1] (pH 7.4) of 7200 min.
With `COCON=[N+]([O-])NC(C)C` [MOM-IPA/NO], in [8], the “Initial Abs.” value stood at 3.530, the “24-hour Abs.” value turned out to be 3.340 and the degraded at 24 h turned out to be 5%. Besides, in [1] (setting [12]), the Half-life result is “stable”.
As for `[Na+].[Na+].[O-][N+]([O-])=NO` [OXI/NO, sodium trioxodinitrate(II) monohydrate], the Half-life in data set [1] (pH 7.4, 37° C.) turned out to be 2 min.
As for `CCCON=[N+]([O-])N(CC)CC` [P-DEA/NO], the Half-life entry in data set [1] (setting [12]) was “stable”.
`CCN(CC)[N+]([O-])=NOS(=O)(=O)N(C)C` [S-DEA/NO] came in with a Half-life in [1] (pH 7.4) of 30 min.
`NCCCNCCCCN(CCCN)[N+]([O-])=NO` [SPER/NO, spermine-bis(nitric oxide) adduct monohydrate]: the IC50 in data set [3] was 5.65 µg/mL; in [4], 5.31 µg/mL; with Candida albicans it was below 100 µM; in the data set on Francisella tularensis [6] it was below 10 µM; in the data set with Leishmania major [7], below 100 µM. Besides, the values for the 90% effect concentration (IC90) in data set [3] and in data set [4] were 10 µg/mL and 9.53 µg/mL, respectively. In addition, the “times more effective than glucantime” value with Leishmania major [5] amounted to 6.7 times. For the same compound, the Half-life in “physchem” came to 39 min. In addition, the anti-malarial effectiveness entry in the data set on Plasmodium falciparum was “effective”. For the same compound, the “NO2 --(nmol/ml)” value with macrophages was determined as 1 ± 1 nmol/mL.
`N.N.O=S(=O)(O)[N+]([O-])=NO` [SULFI/NO] came in with a Half-life in [9] of 7 min.
On to `C=CON=[N+]([O-])N(CC)CC` [V-DEA/NO], for which, in data set [1] (setting [12]), the Half-life entry is recorded as “stable”.
In data set [3], `CCN(CC)[N+]([O-])=NOCOC(C)=O` [acetoxy-DEA/NO] came in with a half-inhibitory concentration (IC50) of 17.7 µg/mL (≈ 86.5 µM) and an IC90 of 19.2 µg/mL (≈ 93.4 µM). In [4], this compound returned an IC50 of 0.267 µg/mL (≈ 1.3 µM) and an IC90 of 0.295 µg/mL (≈ 1.44 µM). For the same compound, in the data set with Francisella tularensis [2] (setting [13]), the “#Dead/Total” value is given as 2/4 and the “% Protected” value is 50%. Besides, the “times more effective than glucantime” value in the data set on Leishmania major [5] is listed as 8.9 times. Further, the anti-malarial effectiveness result in the data set with Plasmodium falciparum is on record as “effective”. Also, the Half-life result in data set [1] (setting [12]) is “stable”.
As to `O=[N+]([O-])OCC(CO[N+](=O)[O-])O[N+](=O)[O-]` [glyceryl trinitrate], the tolerance / toxicity result in data set [10] is “development of tolerance”.
On to nitric oxide, for which, in the data set with tumor cells, the “inhibition of DNA synthesis and mitochondrial respiration” value was “inhibit DNA synthesis and mitochondrial respiration of tumor cells in vitro”. Moreover, the “killing of intracellular pathogens” value in [11] is on record as “kills intracellular pathogens such as Mycobacterium tuberculosis”.
